# Source: patent publication US20100197614A1, “TREATMENT OF URINARY TRACT INFECTIONS WITH A MIXTURE OF SAPONIN AND AN ANTIBIOTIC” (priority 2007, published 2010)
# Tests used:
# [1] = test system: wild-type E Coli bacteria isolated from UTI patients; test: Growth (absorption at 600 nm) and CFU survival of E Coli directly exposed to gentamicin in LB; format: cell-based, Escherichia coli
# Experimental: Furthermore, a sample of each bacteria solution at each different gentamicin concentration was transferred to an agar plate in order to test if the bacteria could give any surviving colony forming units (CFU) on an agar plate. The agar plate incubated overnight at 37° C.
# FIG. 3, lower panel, no E Coli bacteria could survive being exposed for 2 hours to concentrations of gentamicin higher than approximately 3.1 μg/ml.
# Seven different wild-type E Coli bacteria were isolated from UTI patients and were cultured in Luria Broth (LB) medium under static conditions for 2 days. The method for culturing bacteria is familiar for any skilled person in this field of microbiology. The 2 days old bacteria were diluted 100 fold in fresh sterile LB and added different concentrations of gentamicin or no gentamicin (control). Gentamicin was used as representative antibiotic agent. The bacteria were then allowed to re-grow for 2 hours under optimal growth conditions (shaking and at 37° C.) before the actual concentrations of bacteria cell in the LB were measured by determination of the absorption at 600 nm. The absorption of light reflects the number of bacteria. The number of bacteria was expressed relatively to the control preparation without gentamicin. […] Furthermore, a sample of each bacteria solution at each different gentamicin concentration was transferred to an agar plate in order to test if the bacteria survived and could cause formation of colony forming units (CFU) on an agar plate. The agar plate incubated overnight at 37° C.
# [2] = test system: E Coli taken up by human urinary bladder cells (HTB-9); test: Infection of human bladder cells (HTB-9) with E Coli; surviving intracellular bacteria counted as CFU after gentamicin exposure; format: cell-based, Escherichia coli; conditions: HTB-9 infected 1 or 2 hours, then 100.0 μg/ml gentamicin for 2 hours
# Experimental: Human bladder cells were cultured and thereafter infected with bacteria. In brief, human urinary bladder cells (HTB-9 from American tissue culture collection) were cultured in culture medium and CO2 incubator at 37° C. until the actual experiment took place. Culturing of human cells is familiar for any skilled person in this field of biology. Next, different concentrations of E Coli were added to the human bladder cells. The bladder cells and the bacteria were allowed to incubate for 1 or 2 hours together before most of the loosely bound and extracellular E Coli cells were removed by washing the bladder cells with PBS (the human bladder cells are attached to the bottom of the cell culture flask). The human bladder cells were exposed to 100.0 μg/ml gentamicin for 2 hours. Gentamicin cannot pass any membrane under normal conditions. As already shown in example 1, this gentamicin treatment kills all bacteria if the gentamicin can get access to the bacteria. Residual gentamicin and dead bacteria were removed again by washing the bladder cells with PBS. A final concentration of 0.1% triton x-100 in phosphate buffered saline was added to destroy all membrane structures of the human cells. […] The degree of expression of bacterial type 1 pili was correlated with the degree of bladder infection as measured by the method explained in example 2. […]
substance,measurement,setting,value
gentamicin,survival of test bacteria on direct exposure,"[1]; 100.0 μg/ml gentamicin, 2 hours",could not survive
same,number of bacteria relative to control without gentamicin (absorption at 600 nm),[1]; 2 hours re-growth with different concentrations of gentamicin,reduced at very low concentrations of gentamicin
same,gentamicin concentration above which no E Coli bacteria could survive (CFU on agar plate),"[1]; exposed for 2 hours, LB, 37° C., agar plate overnight",approximately 3.1 μg/ml
same,survival of bacteria taken up by bladder cells after antibiotic treatment (CFU),[2],able to survive the antibiotic treatment
